Test results from ChEMBL document CHEMBL3399921, “Novel 2-(2-phenalkyl)-1H-benzo[d]imidazoles as antitubercular agents. Synthesis, biological evaluation and structure-activity relationship” (Bioorg Med Chem, 2015).
Converted amounts (≈) assume the structure as drawn.

Tested on: Mycobacterium tuberculosis variant bovis
Assay: Tuberculostatic activity against Mycobacterium bovis by two-fold classical test-tube method
Assay type: functional

Q: Which MIC does the source give for `Cc1cc2nc(CCc3cc(Cl)cc(Cl)c3)[nH]c2cc1C` here?
A: 19 µM (≈ 6.07 µg/mL)

Q: How did the MIC turn out when `Nc1c(NC(=O)CCc2cc(Cl)cc(Cl)c2)cc(Cl)cc1[N+](=O)[O-]` was run?
A: 65 µM (≈ 25.3 µg/mL)

Q: Which MIC does the source give for `Cc1cc2nc(CCc3ccccc3)[nH]c2cc1C` here?
A: 6.3 µM (≈ 1.58 µg/mL)
